This note sets out measurements from ChEMBL document CHEMBL1124045, “Synthesis and antiviral evaluation of carbocyclic analogues of 2'-azido- and 2'-amino-2'-deoxycytidine” (1988).

Activity calls are given as the source filed them. No cut-off for these calls is given here.

Test [1] relates to Human alphaherpesvirus 1. The experiment in a line: Antiviral activity in vitro against Herpes simplex virus type 1 (HSV-1); NA is not active uM. The format is functional, organism-based.
The subject of test [2] is Human alphaherpesvirus 1. The experiment in a line: Antiviral activity in vitro against Herpes simplex virus type 1 (HSV-1). Particulars: read-out: ED50 (the source's name). In kind it is functional.

Consider `[N-]=[N+]=N[C@@H]1C(n2ccc(N)nc2=O)CC(CO)[C@@H]1O` (some centres not stated), for which the ED50 entry with Human alphaherpesvirus 1 [1] is “inactive”.
Turning to `Nc1ccn(C2CC(CO)[C@H](O)[C@@H]2N)c(=O)n1` (some centres not stated), the EC50 with Human alphaherpesvirus 1 [2] was 50 µM.
